# Test results from the NIST ThermoML archive (doi:10.1021/je300972a).
# Numbers after ± are expanded uncertainties.
# Assay: refractive index (Na D-line) (dimensionless); xn = mol fraction of the nth substance listed
# Conditions: 101 kPa, Liquid, Standard Abbe refractometry
structure (smiles),measurement,setting,value
CCCC[n+]1ccc(C)cc1.O=S(=O)([N-]S(=O)(=O)C(F)(F)F)C(F)(F)F + CCCC[n+]1ccccc1.F[B-](F)(F)F,refractive index,"293.15 K, x2 = 0",1.448 ± 0.0007
same,refractive index,"293.15 K, x2 = 0.0575",1.4479 ± 0.0007
same,refractive index,"293.15 K, x2 = 0.1136",1.4477 ± 0.0007
same,refractive index,"293.15 K, x2 = 0.2311",1.4474 ± 0.0007
same,refractive index,"293.15 K, x2 = 0.3515",1.4472 ± 0.0007
same,refractive index,"293.15 K, x2 = 0.4566",1.4471 ± 0.0007
same,refractive index,"293.15 K, x2 = 0.5692",1.4469 ± 0.0007
same,refractive index,"293.15 K, x2 = 0.673",1.4468 ± 0.0007
same,refractive index,"293.15 K, x2 = 0.7836",1.4468 ± 0.0007
same,refractive index,"293.15 K, x2 = 0.889",1.4469 ± 0.0007
same,refractive index,"293.15 K, x2 = 0.9535",1.447 ± 0.0007
same,refractive index,"303.15 K, x2 = 0",1.4449 ± 0.0007
same,refractive index,"303.15 K, x2 = 0.0575",1.4448 ± 0.0007
same,refractive index,"303.15 K, x2 = 0.1136",1.4446 ± 0.0007
same,refractive index,"303.15 K, x2 = 0.2311",1.4444 ± 0.0007
same,refractive index,"303.15 K, x2 = 0.3515",1.4443 ± 0.0007
same,refractive index,"303.15 K, x2 = 0.4566",1.4441 ± 0.0007
same,refractive index,"303.15 K, x2 = 0.5692",1.4441 ± 0.0007
same,refractive index,"303.15 K, x2 = 0.673",1.444 ± 0.0007
same,refractive index,"303.15 K, x2 = 0.7836",1.4441 ± 0.0007
same,refractive index,"303.15 K, x2 = 0.889",1.4442 ± 0.0007
same,refractive index,"303.15 K, x2 = 0.9535",1.4443 ± 0.0007
same,refractive index,"313.15 K, x2 = 0",1.4419 ± 0.0007
same,refractive index,"313.15 K, x2 = 0.0575",1.4418 ± 0.0007
same,refractive index,"313.15 K, x2 = 0.1136",1.4416 ± 0.0007
same,refractive index,"313.15 K, x2 = 0.2311",1.4414 ± 0.0007
same,refractive index,"313.15 K, x2 = 0.3515",1.4414 ± 0.0007
same,refractive index,"313.15 K, x2 = 0.4566",1.4413 ± 0.0007
same,refractive index,"313.15 K, x2 = 0.5692",1.4413 ± 0.0007
same,refractive index,"313.15 K, x2 = 0.673",1.4413 ± 0.0007
same,refractive index,"313.15 K, x2 = 0.7836",1.4413 ± 0.0007
same,refractive index,"313.15 K, x2 = 0.889",1.4416 ± 0.0007
same,refractive index,"313.15 K, x2 = 0.9535",1.4417 ± 0.0007
same,refractive index,"323.15 K, x2 = 0",1.4388 ± 0.0007
same,refractive index,"323.15 K, x2 = 0.0575",1.4388 ± 0.0007
same,refractive index,"323.15 K, x2 = 0.1136",1.4386 ± 0.0007
same,refractive index,"323.15 K, x2 = 0.2311",1.4385 ± 0.0007
same,refractive index,"323.15 K, x2 = 0.3515",1.4385 ± 0.0007
same,refractive index,"323.15 K, x2 = 0.4566",1.4384 ± 0.0007
same,refractive index,"323.15 K, x2 = 0.5692",1.4385 ± 0.0007
same,refractive index,"323.15 K, x2 = 0.673",1.4385 ± 0.0007
same,refractive index,"323.15 K, x2 = 0.7836",1.4386 ± 0.0007
same,refractive index,"323.15 K, x2 = 0.889",1.4389 ± 0.0007
same,refractive index,"323.15 K, x2 = 0.9535",1.439 ± 0.0007
same,refractive index,"333.15 K, x2 = 0",1.4358 ± 0.0007
same,refractive index,"333.15 K, x2 = 0.0575",1.4357 ± 0.0007
same,refractive index,"333.15 K, x2 = 0.1136",1.4356 ± 0.0007
same,refractive index,"333.15 K, x2 = 0.2311",1.4356 ± 0.0007
same,refractive index,"333.15 K, x2 = 0.3515",1.4356 ± 0.0007
same,refractive index,"333.15 K, x2 = 0.4566",1.4356 ± 0.0007
same,refractive index,"333.15 K, x2 = 0.5692",1.4357 ± 0.0007
same,refractive index,"333.15 K, x2 = 0.673",1.4358 ± 0.0007
same,refractive index,"333.15 K, x2 = 0.7836",1.4359 ± 0.0007
same,refractive index,"333.15 K, x2 = 0.889",1.4362 ± 0.0007
same,refractive index,"333.15 K, x2 = 0.9535",1.4364 ± 0.0007
same,refractive index,"343.15 K, x2 = 0",1.4328 ± 0.0007
same,refractive index,"343.15 K, x2 = 0.0575",1.4328 ± 0.0007
same,refractive index,"343.15 K, x2 = 0.1136",1.4327 ± 0.0007
same,refractive index,"343.15 K, x2 = 0.2311",1.4327 ± 0.0007
same,refractive index,"343.15 K, x2 = 0.3515",1.4327 ± 0.0007
same,refractive index,"343.15 K, x2 = 0.4566",1.4328 ± 0.0007
same,refractive index,"343.15 K, x2 = 0.5692",1.433 ± 0.0007
same,refractive index,"343.15 K, x2 = 0.673",1.4331 ± 0.0007
same,refractive index,"343.15 K, x2 = 0.7836",1.4333 ± 0.0007
same,refractive index,"343.15 K, x2 = 0.889",1.4336 ± 0.0007
same,refractive index,"343.15 K, x2 = 0.9535",1.4338 ± 0.0007
same,refractive index,"353.15 K, x2 = 0",1.4298 ± 0.0007
same,refractive index,"353.15 K, x2 = 0.0575",1.4298 ± 0.0007
same,refractive index,"353.15 K, x2 = 0.1136",1.4297 ± 0.0007
same,refractive index,"353.15 K, x2 = 0.2311",1.4298 ± 0.0007
same,refractive index,"353.15 K, x2 = 0.3515",1.4299 ± 0.0007
same,refractive index,"353.15 K, x2 = 0.4566",1.43 ± 0.0007
same,refractive index,"353.15 K, x2 = 0.5692",1.4302 ± 0.0007
same,refractive index,"353.15 K, x2 = 0.673",1.4304 ± 0.0007
same,refractive index,"353.15 K, x2 = 0.7836",1.4306 ± 0.0007
same,refractive index,"353.15 K, x2 = 0.889",1.431 ± 0.0007
same,refractive index,"353.15 K, x2 = 0.9535",1.4313 ± 0.0007
